The test system of one data set is AP-1. The data set can be described thus: Test on the function of inhibiting the AP-1 activation induced by ultraviolet rays (gel shift assay). Format: cell-based, human. The settings on record: single compound. The procedure: Test on the Function of Inhibiting the AP-1 Activation Induced by Ultraviolet Rays.
(§1) In a similar manner to Test Example 1, a nucleoprotein was obtained. Then, the activated AP-1 was detected by the gel shift assay. The radioactive value of the AP-1 band was measured as in Test Example 1, whereby the amount of the AP-1 was determined. The AP-1 activation inhibiting ratio of the test compounds was calculated by the below-described equation (2). The results of the test compounds according to the present invention are shown below in Table 4a, while those of the comparative compounds are shown below in Table 4b.
AP-1 activation inhibiting ratio (%)={1−(B1-B3)/(B2-B3)}×100 (2)
B1: radioactive value of the AP-1 band upon addition of a test compound.
B2: radioactive value of the AP-1 band when a test compound is not added.
B3: radioactive value of the AP-1 band when a test compound is not added and is not exposed to ultraviolet rays.
In general terms: Mobility shift assays separate free from complexed probe on a gel.

The next data set relates to human epidermal cells. The data set can be described thus: Toxicity to the cultured human epidermal cells seen in the NF-κB / AP-1 activation tests. The class given is cell-based. The procedure:
Each of the test compounds was added to a culture plate at a concentration within an extent not causing a damage to the human epidermal cells which had reached the confluent stage in the culture plate. After 18 hours had elapsed, the culture medium was substituted by a phenol red-free medium. The cells were exposed to ultraviolet rays (UVB: 50 mJ/cm^2) from an ultraviolet irradiator “Dermaray M-DMR-80” (ex Toshiba Medical Supply Co., Ltd.). After 4 to 5 hours had elapsed, the cells were collected, and the nucleoprotein was extracted therefrom in a manner known per se in the art. From the resulting nucleoprotein, the activated NF-κB was detected in accordance with the gel shift assay. The amount of the NF-κB was determined by measuring the radioactive value of the NF-κB band with the use of a bioimaging analyzer “BAS 2000” (ex Fuji Film Co., Ltd.).
as §1

Another data set relates to NF-κB. The data set can be described thus: Test on the function of inhibiting the activation of NF-κB induced by ultraviolet rays (gel shift assay). The settings on record: human epidermal cells, UVB 50 mJ/cm^2. Format: cell-based, human. The procedure: Test on the Function of Inhibiting the Activation of NF-κB Induced by Ultraviolet Rays.
After 18 hours had elapsed, the culture medium was substituted by a phenol red-free medium. The cells were exposed to ultraviolet rays (UVB: 50 mJ/cm^2) from an ultraviolet irradiator “Dermaray M-DMR-80” (ex Toshiba Medical Supply Co., Ltd.). After 4 to 5 hours had elapsed, the cells were collected, and the nucleoprotein was extracted therefrom in a manner known per se in the art. From the resulting nucleoprotein, the activated NF-κB was detected in accordance with the gel shift assay. The amount of the NF-κB was determined by measuring the radioactive value of the NF-κB band with the use of a bioimaging analyzer “BAS 2000” (ex Fuji Film Co., Ltd.).
The inhibition ratio of the activation of the NF-κB of the test compounds was calculated from the below-described formula (1).
Inhibition ratio of NF-κB activation (%)={1−(A1-A3)/(A2-A3)}×100 (1)
A1: radioactive value of the NF-κB upon addition of a test compound
A2: radioactive value of NF-κB when a test compound is not added
A3: radioactive value of NF-κB when a test compound is not added and is not exposed to ultraviolet rays.

For data set [1], the system named is Hairless mice (SKH-1). The data set can be described thus: Test on inhibiting function of wrinkles formation induced by ultraviolet rays (No. 2), Components (A) and (B) in combination. The class given is in vivo, mouse. Further details: scale not given here. The procedure:
(§2) Hairless mice (SKH-1, female, 5-6 weeks old) were exposed to ultraviolet rays (UVB) three times/week (Monday, Wednesday and Friday) for 5 weeks, each at 50 to 100 mJ/cm^2 by using the above-described “Dermaray M-DMR-80” (ex Toshiba Medical Supply Co., Ltd.). The test compound (N,N′-diacetyl-L-cystine dimethyl ester) was dissolved in a mixed solvent of propylene glycol, ethanol and water, and was applied to the back portion of each of the mice in an amount of 100 μl, 30 to 60 minutes before exposure to ultraviolet rays, just after the completion of the exposure, and on the days free from exposure to ultraviolet rays (Sunday, Tuesday, Thursday and Saturday). From two weeks after the exposure had started, the wrinkles formed on the back portion of each mouse were evaluated once a week based on the below-described standards, and they were indicated as scores. In addition, the function of the inventive compound for inhibiting wrinkle formation induced by ultraviolet rays was judged based on the below-described judging standards.
Test on Inhibiting Function of Wrinkles Formation Induced by Ultraviolet Rays (No. 2)
Function of suppressing ultraviolet ray-induced wrinkles formation by the synergistic effects when Components (A) and (B) were used in combination, was judged in a similar manner to Test Example 2. Fifteen to twenty mice were divided into 4 groups, that is, a 1st group to which a mixed solvent of propylene glycol, ethanol and water was to be applied, a 2nd group to which a solution of only Component (A) dissolved in the above-described solvent was to be applied, a 3rd group to which a solution of only Component (B) dissolved in the above-described solvent was to be applied, and a 4th group to which a solution of both Components (A) and (B) dissolved in the above-described solvent was to be applied. An average score of each group was determined.

Data set [2] deals with Hairless mice (SKH-1). Put plainly: Test on suppressing function of wrinkles formation induced by ultraviolet rays (No. 1). Format: in vivo, mouse. Conditions: for Wrinkle score, individual mouse / Wrinkle score, Average: 10% applied; for Wrinkle score, individual mouse: score 0 to 5. As to the method: Test on Suppressing Function of Wrinkles Formation Induced by Ultraviolet Rays (No. 1)
as §2

Values joined by “and” are separate entries in the source; they are usually repeats but may differ in a detail not shown here. Equal values may be shown once.

Consider `CC1=C(/C=C/C(C)=C/C=C/C(C)=C/C=C/C=C(C)/C=C/C=C(C)/C=C/C2=C(C)C(=O)[C@@H](O)CC2(C)C)C(C)(C)C[C@H](O)C1=O` [astaxantin], for which the “AP-1 activation Inhibiting ratio (%)” value in the data set on AP-1 (1 μM) is −54%; with AP-1 (10 μM), 0%. In the data set on human epidermal cells (100 μM, AP-1 test), the “Toxicity expressed (in inhibiting ratio column)” value is “Toxicity”.

For the compound `CCOC(=O)[C@@H](N)CS` [L-cysteine ethyl ester], the “Inhibition ratio (%) of NF-κB activation” value in the data set on NF-κB (addition concentration 0.5 mM) amounted to 60%; with NF-κB (addition concentration 1 mM), 61%. Further, in the data set with human epidermal cells (addition concentration 5 mM, NF-κB test), the “Toxicity expressed (inhibition ratio)” value is recorded as “Toxity”.

For `O=C1O[C@H]([C@@H](O)CO)C(O)=C1O` [L (+) ascorbic acid], the “Wrinkle score (group average)” value came out at 1.0 in the data set on Hairless mice (SKH-1) [1] (5% alone, 2nd week); 2.0 in the data set with Hairless mice (SKH-1) [1] (5% alone, 3rd week); 4.0 in the data set with Hairless mice (SKH-1) [1] (5% alone, 4th week); 4.0 with Hairless mice (SKH-1) [1] (5% alone, 5th week). In addition, the “AP-1 activation Inhibiting ratio (%)” value was found to be 1% with AP-1 (0.1 mM) and 0% in the data set on AP-1 (1 mM).

Regarding `CCCCC(CC)COC(=O)C=Cc1ccc(OC)cc1` (centres unmarked) [2-ethylhexyl p-methoxycinnamate], the “Wrinkle score (group average)” value with Hairless mice (SKH-1) [1] (3% alone, 2nd week) came out at 0.0; in the data set on Hairless mice (SKH-1) [1] (3% alone, 3rd week), 0.5; in the data set with Hairless mice (SKH-1) [1] (3% alone, 4th week) it was 1.5; in the data set on Hairless mice (SKH-1) [1] (3% alone, 5th week) it was 0.5. The results for the “AP-1 activation Inhibiting ratio (%)” value in the data set on AP-1 (10 μM) and in the data set with AP-1 (100 μM) were −20% and 11%, respectively.

`COC(=O)[C@H](CSSC[C@H](NC(C)=O)C(=O)OC)NC(C)=O` [N,N′-diacetyl-L-cystine dimethyl ester]: the “Wrinkle score (group average)” value was 5.0 and 3.0 and 2.5 in the data set with Hairless mice (SKH-1) [1] (10% alone, 4th week); 4.0 and 2.0 with Hairless mice (SKH-1) [1] (10% alone, 5th week). Also, the “Inhibition ratio (%) of NF-κB activation” value is 47% in the data set with NF-κB (addition concentration 0.01 mM) and 86% with NF-κB (addition concentration 0.1 mM). Further, in the data set on AP-1 (10 μM), the “AP-1 activation Inhibiting ratio (%)” value is 4%. Further, the “Wrinkle score, individual mouse” value in the data set with Hairless mice (SKH-1) [2] (2nd week of UVB exposure) is 2 and 1 (4×) and 0 and 3; in the data set on Hairless mice (SKH-1) [2] (3rd week of UVB exposure) it was 2 (5×) and 3 and 1; in the data set on Hairless mice (SKH-1) [2] (4th week of UVB exposure), 3 (3×) and 5 (2×) and 2 and 4; in the data set with Hairless mice (SKH-1) [2] (5th week of UVB exposure), 2 (3×) and 3 (3×) and 4. The “Wrinkle score, Average” value with Hairless mice (SKH-1) [2] (2nd week, solvent group 2.6) is on record as 1.3; with Hairless mice (SKH-1) [2] (3rd week, solvent group 3.6), 2.0; in the data set on Hairless mice (SKH-1) [2] (4th week, solvent group 4.0) it was 3.6; in the data set with Hairless mice (SKH-1) [2] (5th week, solvent group 4.4), 2.7. Besides, the “Effect on wrinkle formation induced by ultraviolet rays (in words)” value with Hairless mice (SKH-1) [2] (summary of Table 3) was “exhibited effects for retarding and alleviating the wrinkle formation induced by ultraviolet rays”.

Source of the values: patent US20020115723A1, “Cysteine derivatives” (AJINOMOTO CO., INC., priority 1998, published 2002).
